Experimental data reported in patent US8778631B2, “Mono charging system for selectively introducing non-native amino acids into proteins using an in vitro protein synthesis system” (priority 2009, dated 2014).

Molecular target: T1, PheRS (Escherichia coli, UniProt P08312)
T1 construct: endogenous in cells; host or cells: cell-free extract (lysate) of E. coli strain KGK10
Experiment: Inhibition of the rate of cell-free synthesis of turboGFP by Phe-SA
Format: biochemical, E. coli
Details: cell-free synthesis of turboGFPY50TAG with pAF-tRNACUA^Phe
Description: A modified “run-off procedure” was used to prepare the cell-free extract. Fermentation volume to generate sufficient cell-free extract was typically 2.5× the desired cell-free reaction volume. To inactivate the reducing activity of the cell extract, iodoacetamide (IAM) at various concentrations was added as previously described (Yang, Kanter et al. (2004) Biotechnol Prog, 20, 1689-96). Gene expression was under the control of the T7 promoter. In order to facilitate translation initiation, genes were synthesized (DNA 2.0, Menlo Park, Calif.) with synonymous codons at the 5′ end of the gene with ATG start codon (N-terminal methionine residue) optimized for mRNA instability as measured by mRNA ΔGfold in the −6 to +37 positions (Kudla, Murray et al. (2009) Science, 324, 255-258) and rare codons were replaced.
Cell-free reactions were run at 30° C. containing 8 mM magnesium glutamate, 10 mM ammonium glutamate, 130 mM potassium glutamate, 35 mM sodium pyruvate, 1.2 mM AMP, 0.86 mM each of GMP, UMP, & CMP, 2 mM amino acids (1 mM for tyrosine), 4 mM sodium oxalate, 1 mM putrescine, 1.5 mM spermidine, 15 mM potassium phosphate, 100 nM T7 RNA polymerase, 2-50 nM DNA template(s), 1-10 μM E. coli DsbC, and 24-30% (v/v) IAM-treated cell-free extract.

T1 sequence (P07395 whole entry): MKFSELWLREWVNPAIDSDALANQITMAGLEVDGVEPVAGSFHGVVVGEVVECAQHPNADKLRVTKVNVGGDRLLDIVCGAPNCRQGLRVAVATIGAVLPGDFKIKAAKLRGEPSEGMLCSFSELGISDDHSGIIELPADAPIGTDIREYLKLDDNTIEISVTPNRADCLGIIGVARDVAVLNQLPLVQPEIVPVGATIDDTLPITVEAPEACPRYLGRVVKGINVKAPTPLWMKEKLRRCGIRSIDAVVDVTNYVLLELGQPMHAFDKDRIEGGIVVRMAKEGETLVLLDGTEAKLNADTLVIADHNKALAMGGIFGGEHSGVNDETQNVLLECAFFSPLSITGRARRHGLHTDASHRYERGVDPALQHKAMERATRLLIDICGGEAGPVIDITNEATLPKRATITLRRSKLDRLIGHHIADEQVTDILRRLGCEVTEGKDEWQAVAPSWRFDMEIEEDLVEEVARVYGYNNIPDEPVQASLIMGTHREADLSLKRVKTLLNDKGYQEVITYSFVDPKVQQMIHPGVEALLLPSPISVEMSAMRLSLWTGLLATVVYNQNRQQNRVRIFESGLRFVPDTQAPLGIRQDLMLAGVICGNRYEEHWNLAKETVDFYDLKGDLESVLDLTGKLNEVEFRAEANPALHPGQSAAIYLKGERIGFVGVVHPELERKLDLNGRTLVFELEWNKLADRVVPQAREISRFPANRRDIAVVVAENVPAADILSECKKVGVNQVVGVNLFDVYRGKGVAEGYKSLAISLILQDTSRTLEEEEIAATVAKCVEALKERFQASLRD
T1 sequence (P08312 whole entry): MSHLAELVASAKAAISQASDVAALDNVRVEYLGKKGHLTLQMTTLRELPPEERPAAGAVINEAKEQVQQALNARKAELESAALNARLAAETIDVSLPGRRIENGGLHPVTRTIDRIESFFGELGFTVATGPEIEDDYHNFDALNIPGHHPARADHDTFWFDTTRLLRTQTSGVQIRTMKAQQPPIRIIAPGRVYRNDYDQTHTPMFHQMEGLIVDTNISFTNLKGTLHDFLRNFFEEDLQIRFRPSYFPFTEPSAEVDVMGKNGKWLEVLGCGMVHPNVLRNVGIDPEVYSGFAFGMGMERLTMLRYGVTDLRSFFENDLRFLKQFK

Nc1ncnc2c1ncn2[C@@H]1O[C@H](COS(=O)(=O)NC(=O)[C@@H](N)Cc2ccccc2)[C@@H](O)[C@H]1O [Phe-SA, 5′-O—[N-(Phenylalanyl)sulfamoyl]adenosine]
time after which the inhibitor begins to lose its effectiveness: 7 to 8 h
